In data set [1] the test system is SARS-CoV-2. It counts as cell-based. Conditions: for virus-yield decrease, CoV-2: nontoxic single dose, 48 h; for antiviral effect on CoV-2 replication: up to 20 μM.
Data set [2] concerns HCoV-OC43. As to the kind of experiment: microbe, parasite or virus in culture. It counts as cell-based. As to conditions: for EC50: Betacoronavirus 1, OC43, Huh-7, read-out: Antiviral activity against HCoV-OC43 Huh7 cells EC50; for antiviral activity against HCoV-OC43: up to 20 μM.
Data set [3] has as its system Vero CCL-81 cells.
Data set [4] in a line: in vitro. Conditions: African green monkey.
Data set [5] concerns SARS-CoV-2. As to conditions: read-out: reported EC50; Vero E6 cells; cited from earlier work.
Data set [6] concerns COVID-19. As to conditions: 1,063 hospitalized patients; placebo 15 days; P < 0.0001; cited from earlier work.
Data set [7] in a line: in vitro. As to conditions: human.
The nature of data set [8]: in vitro. Conditions: human. The source holds these as a separate data set.
Data set [9] can be described thus: in vitro. Conditions: human. This is another data set of the same source.
Data set [10] has as its system CoV-2 and HCoV-OC43. The data set is described as follows: sofosbuvir antiviral evaluation in additional cells. It counts as cell-based.

Counter-ions that a name gives are not always drawn. Like-named read-outs stand apart in the source and are kept apart here.

One may read the EC50 as the midpoint of the concentration-response curve. For the compound `C[C@@]1(O)[C@H](O)[C@@H](CO)O[C@H]1n1ccc(N)nc1=O` [Compound 1, 2′-C-methylcytidine], the “selectivity index (SI) for SARS-CoV-2” value in data set [1] (CC50/EC50, Vero cells) is listed as over 10. Also, in data set [2], the EC50 was 10 ± 0.7 µM. Moreover, the “toxicity in Vero cells” value in data set [3] (up to 100 μM) was “no toxicity”. In addition, in data set [4], the CC50 was over 100 µM.

With `CCC(CC)COC(=O)[C@H](C)N[P@](=O)(OC[C@H]1O[C@@](C#N)(c2ccc3c(N)ncnn23)[C@H](O)[C@@H]1O)Oc1ccccc1` [Compound 10, remdesivir], the “selectivity index (SI) for SARS-CoV-2” value in data set [1] (CC50/EC50, Vero cells) was over 100. The “virus-yield decrease, CoV-2” value in data set [1] (Vero cells) is reported as over 90%. The 50% effective concentration (EC50) in data set [2] is 0.04 ± 0.1 µM; in [5], 1.85 µM. For the same compound, in [2] (CC50/EC50, Huh-7 cells), the “selectivity index (SI) for HCoV-OC43” value is 52. The time to recovery in [6] is given as 11 days. In [4], the CC50 was over 100 µM.

For `NC(=O)c1ncn([C@@H]2O[C@H](CO)[C@@H](O)[C@H]2O)n1` [Compound 12, ribavirin], in [1] (Vero cells), the “antiviral effect on CoV-2 replication” value is “did not exhibit a marked inhibitory effect”. Moreover, in [2], the 50% effective concentration (EC50) was 20.6 µM. In data set [2] (Huh-7 cells), the “antiviral activity against HCoV-OC43” value was “did not exhibit a marked inhibitory effect”. Also, the CC50 in data set [4] is over 100 µM.

With `CC(C)OC(=O)OCOP(=O)(CO[C@H](C)Cn1cnc2c(N)ncnc21)OCOC(=O)OC(C)C` [Compound 16, tenofovir disoproxil fumarate], the “antiviral effect on CoV-2 replication” value in [1] (Vero cells) is “did not show any activity”. The EC50 in data set [2] is over 20 µM. In addition, the “antiviral activity against HCoV-OC43” value in data set [2] (Huh-7 cells) is given as “did not show any activity”. In data set [4], this compound showed a CC50 of over 100 µM.

As to `NC(=O)c1nc(F)c[nH]c1=O` [Compound 8, favipiravir], the EC50 in data set [2] was 6.8 µM. For the same compound, the CC50 in [7], in [8], in data set [4] and in data set [9] was over 100 µM in each case.

As for `CC(C)OC(=O)[C@H](C)N[P@](=O)(OC[C@H]1O[C@@H](n2ccc(=O)[nH]c2=O)[C@](C)(F)[C@@H]1O)Oc1ccccc1` [Compound 4, sofosbuvir], the “antiviral effect on CoV-2 replication” value in data set [1] (Vero cells) is on record as “no antiviral effect”. Further, the concentration for a half-maximal effect (EC50) in [2] was over 20 µM; in [10] (Betacoronavirus 1, OC43, Calu-3, in Homo sapiens, read-out: EC50 in Calu3 cells) it was over 20 µM; in data set [10] (Betacoronavirus 1, OC43, RD, in Homo sapiens, read-out: EC50 in RD cells) it was over 20 µM; in data set [10] (Caco-2, read-out: EC50 in Caco-2 cells), over 20 µM. The CC50 in data set [7], in data set [8], in [4] and in data set [9] was over 100 µM in each case.

`Nc1ccn([C@@H]2CS[C@H](CO)O2)c(=O)n1` [Compound 13, lamivudine]: the “antiviral effect on CoV-2 replication” value in data set [1] (Vero cells) is listed as “did not show any activity”. The concentration for a half-maximal effect (EC50) in [2] is over 20 µM. Besides, in [2] (Huh-7 cells), the “antiviral activity against HCoV-OC43” value is “did not show any activity”. The CC50 in [7], in data set [8], in data set [4] and in data set [9] was over 100 µM each time.

Take `Nc1ccn([C@@H]2O[C@@](CO)(CCl)[C@@H](O)[C@H]2F)c(=O)n1` [Compound 5, ALS-8112]: the “antiviral effect on CoV-2 replication” value in data set [1] (Vero cells) is listed as “did not have a marked effect”. The EC50 in data set [2] was over 20 µM. In addition, the CC50 in data set [4] was over 100 µM.

Take `C[C@@]1(O)[C@H](O)[C@@H](CO)O[C@H]1n1cc(F)c2c(N)ncnc21` [Compound 2, 7-deaza-7-fluoro-2′-C-methyladenosine]: the “selectivity index (SI) for SARS-CoV-2” value in data set [1] was over 10. Besides, in data set [2], the EC50 was 6.7 ± 1.1 µM. Besides, the “toxicity in Vero cells” value in [3] is on record as “no toxicity”. In addition, the CC50 in [4] is over 100 µM.

In the case of `C=C1[C@H](CO)[C@@H](O)C[C@@H]1n1cnc2c(=O)[nH]c(N)nc21` [Compound 9, entecavir], the EC50 in data set [2] was over 20 µM. In data set [4], this compound displayed a CC50 of over 100 µM.

For the compound `Nc1nc(=O)n([C@@H]2CS[C@H](CO)O2)cc1F` [Compound 14, emtricitabine], the concentration giving a half-maximal response (EC50) in data set [2] is over 20 µM. Moreover, the CC50 in data set [7], in data set [8], in data set [4] and in data set [9] was over 100 µM in each case.

Turning to `N#C[C@@]1(c2ccc3c(N)ncnn23)O[C@H](CO)[C@@H](O)[C@H]1O` [Compound 11, GS-441524], the “selectivity index (SI) for SARS-CoV-2” value in data set [1] (CC50/EC50, Vero cells) is recorded as 12. Further, the “virus-yield decrease, CoV-2” value in data set [1] (Vero cells) is listed as over 90%. For the same compound, the EC50 in data set [2] was over 10 µM; in [5], 0.47 µM. Besides, the CC50 in data set [7], in [8], in data set [4] and in data set [9] was over 100 µM throughout.

Regarding `CC(C)OC(=O)[C@H](C)N[P@](=O)(CO[C@H](C)Cn1cnc2c(N)ncnc21)Oc1ccccc1` [Compound 15, tenofovir alafenamide], in data set [2], the EC50 is over 20 µM. Also, the CC50 in data set [4] amounted to 36.4 µM.

Values taken from paper PMC7927863 (Antimicrobial Agents and Chemotherapy, 2020).
